In a compilation of properties of binary mixtures (doi:10.1007/s10953-014-0273-1):

Test: xn = mol fraction of the nth substance listed
Conditions: 101 kPa

CC#N + CCCC[n+]1ccn(C)c1.F[B-](F)(F)F
x1 = 1
Conditions	viscosity [mPa·s]
303.15 K	0.329
313.15 K	0.3
323.15 K	0.276

CC(=O)N(C)C + CCCC[n+]1ccn(C)c1.F[B-](F)(F)F
x1 = 1
Conditions	viscosity [mPa·s]
303.15 K	0.882
323.15 K	0.69
333.15 K	0.618

CCCC[n+]1ccn(C)c1.F[B-](F)(F)F + CC(=O)N(C)C
viscosity [mPa·s]
Conditions	x2 = 0	x2 = 0.1006	x2 = 0.2004	x2 = 0.3005	x2 = 0.4011	x2 = 0.5002	x2 = 0.5998	x2 = 0.6996	x2 = 0.8002	x2 = 0.8999
303.15 K	84.2	59	41.6	29	19.38	12.88	8.32	4.99	2.95	1.679
313.15 K	53	38.5	28	20.16	14	–	6.32	4	2.44	–
323.15 K	35.5	26.6	19.88	14.62	10.55	7.37	–	–	2.069	–
333.15 K	25.01	19.27	14.76	11.08	8.15	5.87	4.09	2.77	–	1.1

CCCC[n+]1ccn(C)c1.F[B-](F)(F)F + CO
viscosity [mPa·s]
Conditions	x2 = 0	x2 = 0.1003	x2 = 0.2047	x2 = 0.2997	x2 = 0.3996	x2 = 0.504	x2 = 0.6004	x2 = 0.6992	x2 = 0.7997	x2 = 0.9001
303.15 K	84.2	54.2	34.6	23.54	15.02	9.42	–	3.67	2.118	1.141
313.15 K	–	–	–	16.93	11.32	7.4	4.86	3.03	–	–
323.15 K	35.5	–	17.81	12.9	8.94	6.02	–	2.537	1.527	0.895
333.15 K	25.01	18.68	13.6	10.13	–	5.03	3.42	2.195	1.337	0.765

CN1CCCC1=O + CCCC[n+]1ccn(C)c1.F[B-](F)(F)F
Conditions	viscosity [mPa·s]
303.15 K, x1 = 1	1.551

CCCC[n+]1ccn(C)c1.F[B-](F)(F)F + CN1CCCC1=O
viscosity [mPa·s]
Conditions	x2 = 0	x2 = 0.0999	x2 = 0.2001	x2 = 0.3028	x2 = 0.4	x2 = 0.4999	x2 = 0.5998	x2 = 0.7001	x2 = 0.8003	x2 = 0.9001
303.15 K	–	–	–	–	–	17.17	11.43	7.37	4.64	2.9
313.15 K	53	41	31.6	23.77	17.42	12.5	8.61	5.75	3.76	2.409
323.15 K	–	28.2	22.15	17.13	13	9.47	6.73	–	3.13	1.991
333.15 K	25.01	20.3	16.25	12.83	9.93	7.46	5.37	3.79	2.66	1.722

CCCC[n+]1ccn(C)c1.F[B-](F)(F)F + CC#N
viscosity [mPa·s]
Conditions	x2 = 0	x2 = 0.1001	x2 = 0.2034	x2 = 0.3011	x2 = 0.4013	x2 = 0.5	x2 = 0.6018	x2 = 0.7	x2 = 0.7997	x2 = 0.9001
303.15 K	–	55.2	–	23.74	14.97	9.25	5.34	3	1.611	0.792
313.15 K	53	36.5	24.4	16.9	–	7.14	–	2.522	1.389	0.707
323.15 K	–	25.36	17.76	–	8.57	–	3.58	2.155	–	0.636
333.15 K	25.01	18.43	13.23	9.83	6.83	4.69	3.03	1.877	1.103	0.579

CO + CCCC[n+]1ccn(C)c1.F[B-](F)(F)F
x1 = 1
Conditions	viscosity [mPa·s]
313.15 K	0.455
323.15 K	0.401
